Test results taken from ChEMBL document CHEMBL1201862, “PubChem BioAssay data set” (2004).
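These data come from cells grown in 96-well plates and exposed to compound for 48 hours at five concentrations. Abbreviation: GI50, concentration required for 50% inhibition of growth.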 Activity calls are given as the source filed them. No stated cut-off is given here; in the data, active = GI50 up to about 1.1 µM and inactive = higher. Peptide text beside a SMILES is read from it. * marks the point of attachment. Cbz = O=C(OCc1ccccc1)*; OBn = c1ccc(CO*)cc1

Columns and labels:
Test in all cases: DTP human tumour cell line panel, 48 h
786-0 = tested on: 786-0
BT-549 = tested on: BT-549
HCT-116 = tested on: HCT-116
HOP-62 = tested on: HOP-62
HT-29 = tested on: HT-29
K562 = tested on: K562
MDA-MB-231 = tested on: MDA-MB-231
MDA-MB-435 = tested on: MDA-MB-435
Malme-3M = tested on: Malme-3M
NCI-H23 = tested on: NCI-H23
NCI/ADR-RES = tested on: NCI/ADR-RES
OVCAR-3 = tested on: OVCAR-3
OVCAR-5 = tested on: OVCAR-5
SF-539 = tested on: SF-539
SK-MEL-28 = tested on: SK-MEL-28
SN12C = tested on: SN12C
SNB-19 = tested on: SNB-19
UACC-62 = tested on: UACC-62
RPMI-8226 = tested on: RPMI-8226
A498 = tested on: A498

Measured: GI50

CC(=O)Oc1ccc2c(c1)[nH]c1c3ccc(OC(C)=O)cc3oc(=O)c21
inactive: 786-0 48 µM | BT-549 23.9 µM | HCT-116 23.3 µM | HOP-62 29.3 µM | HT-29 34.2 µM | K562 26.5 µM | MDA-MB-231 29.2 µM | MDA-MB-435 27.2 µM | Malme-3M 32.8 µM | NCI-H23 36.1 µM | NCI/ADR-RES > 100 µM | OVCAR-3 24.8 µM | OVCAR-5 > 100 µM | SF-539 29.9 µM | SK-MEL-28 38 µM | SN12C 30.5 µM | SNB-19 23.9 µM | UACC-62 28.1 µM

N#CC(/N=N/c1ccccc1C(=O)O)C(N)=O (stereo unspecified)
inactive: 786-0 > 100 µM | BT-549 > 100 µM | HCT-116 > 100 µM | HOP-62 > 100 µM | HT-29 > 100 µM | K562 > 100 µM | MDA-MB-231 > 100 µM | MDA-MB-435 > 100 µM | Malme-3M 91.2 µM | NCI-H23 > 100 µM | NCI/ADR-RES 39.8 µM | OVCAR-3 > 100 µM | OVCAR-5 > 100 µM | RPMI-8226 > 100 µM | SK-MEL-28 > 100 µM | SN12C > 100 µM | SNB-19 > 100 µM | UACC-62 > 100 µM

O=C1N=C2SC=C(NC(=S)Nc3ccccc3)N2NC12c1ccccc1-c1ccccc12
inactive: 786-0 > 10 µM | BT-549 > 10 µM | HCT-116 > 10 µM | HOP-62 > 10 µM | HT-29 > 10 µM | K562 > 10 µM | MDA-MB-231 > 10 µM | MDA-MB-435 > 10 µM | Malme-3M > 10 µM | NCI-H23 > 10 µM | NCI/ADR-RES > 10 µM | OVCAR-5 > 10 µM | RPMI-8226 > 10 µM | SF-539 > 10 µM | SK-MEL-28 > 10 µM | SN12C > 10 µM | SNB-19 > 10 µM | UACC-62 > 10 µM

c1csc(-c2nnc(C34CC5CC(CC(C5)C3)C4)o2)c1
inactive: 786-0 24.7 µM | A498 16.9 µM | HCT-116 32.2 µM | HOP-62 29.4 µM | HT-29 19 µM | K562 34 µM | MDA-MB-231 17.7 µM | MDA-MB-435 36.5 µM | Malme-3M 16.4 µM | NCI-H23 42.7 µM | NCI/ADR-RES 21.7 µM | OVCAR-3 13.6 µM | OVCAR-5 32.4 µM | RPMI-8226 36.2 µM | SF-539 19 µM | SK-MEL-28 40.6 µM | SN12C 38 µM | SNB-19 51.6 µM | UACC-62 36.2 µM

COc1cc(/C=C2\N=C(c3ccccc3)N(c3nc4cc(C)c(C)cc4s3)C2=O)cc(OC)c1OC
inactive: 786-0 27.6 µM | BT-549 26.8 µM | HCT-116 20.2 µM | HOP-62 19.9 µM | HT-29 19 µM | K562 35.4 µM | MDA-MB-231 43.6 µM | MDA-MB-435 12.9 µM | NCI/ADR-RES 28.1 µM | OVCAR-3 20 µM | OVCAR-5 27.2 µM | RPMI-8226 19.3 µM | SF-539 21.7 µM | SK-MEL-28 62.2 µM | SN12C 34.8 µM | SNB-19 36 µM | UACC-62 33.3 µM

CC[C@@]1(C[C@H]2C[C@@]3(C(=O)OC)c4[nH]c5ccccc5c4CCN3C2=S)COC2(CCCCC2)O1
inactive: 786-0 > 100 µM | A498 88.7 µM | BT-549 4.72 µM | HCT-116 6.92 µM | HOP-62 22.2 µM | HT-29 16.7 µM | K562 5.48 µM | MDA-MB-435 5.09 µM | Malme-3M > 100 µM | NCI-H23 21.4 µM | NCI/ADR-RES 57 µM | OVCAR-3 55.7 µM | OVCAR-5 > 100 µM | SF-539 > 100 µM | SN12C > 100 µM | SNB-19 38.5 µM | UACC-62 11.3 µM

COC(=O)CNC(=O)C(C)NC(=O)C(CC(=O)OCc1ccccc1)NC(=O)OCc1ccccc1 (stereo not drawn) (Cbz-Asp(OBn)-Ala-Gly-OMe; configuration not given here)
inactive: 786-0 > 100 µM | BT-549 37.8 µM | HCT-116 30.6 µM | HOP-62 > 100 µM | HT-29 65.5 µM | K562 27.5 µM | MDA-MB-231 6.64 µM | MDA-MB-435 37.1 µM | Malme-3M 45.2 µM | NCI-H23 36.6 µM | NCI/ADR-RES 67.1 µM | OVCAR-3 75 µM | OVCAR-5 39.4 µM | RPMI-8226 39 µM | SF-539 70.8 µM | SK-MEL-28 80.2 µM | SN12C 91.6 µM | SNB-19 57.3 µM | UACC-62 58.3 µM
